Test results reported in patent US20260108547A1, “LEVERAGING L-FUCOSE-MEDIATED SIGNALING TO INDUCE MONOCYTE-DERIVED DENDRITIC CELL POLARIZATION” (H. LEE MOFFITT CANCER CENTER AND RESEARCH INSTITUTE, INC., priority 2022, published 2026).

Legend:
HLA-DRB1 [1] = assay: Immunofluorescent subcellular localization of HLA-DRB1 in WM793 cells; assay type: cell-based, human; details: compared with vehicle (DMSO)
Experimental: General fluorescent immunocytochemical staining protocol: Melanoma cells were grown on German glass coverslips (Electron Microscopy Services (Hatfield, PA)) and fixed in fixation buffer (4% formaldehyde, 2% sucrose in phosphate buffered saline (PBS) for 20 min at room temperature (RT). The coverslip-grown cells were subject to two 5-min standing washes in PBS prior to permeabilization in permeabilization buffer (0.4% Triton-X-100 and 0.4% IgG-free bovine serum albumin (BSA, Jackson ImmunoResearch Laboratories (Westgrove, PA) in PBS) for 20 min at RT. The coverslip-grown cells were next subject to 2 PBS washes and incubated with the indicated primary antibodies.

HLA-DRB1 [2] = assay: Flow cytometric assessment of cell surface fucosylation and HLA-DRB1 in melanoma cells; assay type: cell-based, human; details: 250 μM, 72 h; flow cytometry
Experimental: Indicated cells were treated for 72 h with DMSO, 250 μM fucosyltransferase inhibitor (FUTi) (Millipore Sigma (St. Louis, MO)), or 250 μM of L-fucose (Biosynth (Oak Terrace, IL)). After 72 h, cells were stained with 0.1 μM PKH26 (Millipore Sigma (St. Louis, MO)) prior to fixation in 4% formaldehyde solution. The cells were stained with anti-HLA-DRB1 and fluorescein AAL, or anti-human or anti-mouse PD-L1 overnight. The following day the cells were washed 3 times prior to adding AlexaFluor 594 donkey anti-rabbit. Cells were washed 3 times and then subject to flow cytometric analyses using a FACSCalibur (BD Biosciences (San Jose, CA)). Samples were analyzed using FlowJo analysis software (BD Biosciences (San Jose, CA)). Median values of DRB1 and AAL were normalized to PKH26 values and statistical analysis was performed using GraphPad Prism.

fucosylated HLA-DRB1 = assay: Lectin-mediated proximity ligation assay (L-PLA) of fucosylated HLA-DRB1 in WM793 cells; assay type: cell-based, human; details: melanoma cells
Experimental: Coverslip-grown cells subjected to L-PLA were processed upfront as described in the fluorescent immunocytochemistry protocol detailed above, whereas FFPE tumor tissue sections were processed according to the fluorescent immunohistochemistry protocol detailed above. Both approaches used mouse-anti-HLA-DRB1 (applied at 0.2 μg/mL, ab215835, Abcam, Cambridge, UK), biotinylated AAL lectin (applied at 0.2 μg/mL, Vector Laboratories (Burlingame, CA)), on coverslips overnight in 4° C. The coverslip-grown cells were again washed twice with PBS followed and then incubated with phalloidin Alexafluor 488 (applied at 0.05 μg/mL, ThermoFisher Scientific (Waltham, MA) with goat anti-biotin (applied at 0.1 μg/mL, Vector Laboratories (Burlingame, CA)) for 2h in 4° C. Subsequent steps of the protocol were adapted from the DUOlink In Situ Green PLA kit's manufacturer's protocol (Millipore Sigma (St. Louis, MO)). PLA anti-goat MINUS and PLA anti-mouse PLUS probes were applied at 1:5 for 1 h at 37° C. The coverslips were washed twice with Wash Buffer A prior to ligation with 1:5 ligation buffer and 1:40 ligase in ddH2O for 30 min at 37° C. […] Microscopy images were acquired using a Keyence BZ-X710, and images were process and analyzed using FIJI (NIH).

HLA-DRB1 [3] = assay: qRT-PCR and immunoblot of HLA-DRB1 mRNA and protein levels in melanoma cells; assay type: cell-based, human; details: 250 μM
Experimental: Cells were lysed on ice in RIPA lysis buffer (25 mM Tris-HCl pH 7.6, 150 mM NaCl, 5 mM EDTA, 1% NP-40 or 1% Triton X-100, 1% sodium deoxycholate, 0.1% SDS in diH2O+protease and phosphatase inhibitors (ThermoFisher Scientific (Waltham, MA)), briefly sonicated, pelleted, and the resulting lysates were normalized by protein concentration using DC assay (BioRad Laboratories, (Hercules, CA)). The indicated samples were subjected to (12%) SDS-PAGE and immunoblot analysis using the indicated antibodies. Immunoblot imaging and analysis was performed using either an Odyssey FC scanner and ImageStudio (LiCor Biosciences, Lincoln, NE) or film.
RNA from cells subjected to the indicated treatments was extracted using Gene Elute Mammalian Total RNA Extraction System (Millipore Sigma (St. Louis, MO)). RNA was reversed transcribed to cDNA using High-Capacity cDNA Reverse Transcription Kit (ThermoFisher Scientific (Waltham, MA)). qRT-PCR analysis was performed using FastStart Universal SYBR Green Master Mix (Rox) (Roche Diagnostics, (Indianapolis, IN)) using a BioRad CFX96 Real-time system (BioRad Laboratories, (Hercules, CA)). The qRT-PCR cycles used were as follows: 95° C. for 10 min, 35 cycles of 95° C. for 15 seconds, 55° C. for 60 seconds,
and 72° C. for 30 seconds. Expression of the indicated genes was normalized to histone H3A expression. […]

SW1 tumors [4] = assay: Flow cytometric profiling of tumors and lymph nodes, SW1 tumors in C3H/HeN mice fed ± L-fucose and treated ± FTY720 (Table 1); assay type: in vivo, mouse
Experimental: Tumors of SW1 or SM1 melanoma cells from […] or C57BL/6 mice, respectively) were digested using 1× tumor digest buffer (0.5 mg/mL Collagenase I, 0.5 mg/mL Collagenase IV, 0.25 mg/mL Hyalyronidase V, 0.1 mg/mL DNAse I in HBSS (Millipore Sigma (St. Louis, MO)). Tumors were homogenized using the Miltenyi MACs dissociator. Red blood cells were lysed using ACK lysis buffer (Life Technologies, (Grand Island, NY)). Tumor homogenate cells were counted using a standard hemocytometer.
Total TILs were gated first to single cells (based on forward scatter height vs width, followed by side scatter height vs. width). Live cells were gated from the Zombie negative population from the population above. TILs were gated based on splenocyte size from a control spleen. Individual immune subpopulations were sub-gated from the total TIL population using the following staining criteria: CD3^+ for CD3^+ T cells; CD3^+/CD4^+/CD8^− for CD4^+T cells; CD3^+/CD4^−/CD8^+ for CD8^+ T cells, CD11c^+/CD11b^+ for DCs; either NK1.1 (for C57/BL6 mice) or DX5 (for C3H/HeJ) for NK cells; CD11b^+/GR1^+ for MDSC-like cells; and F4/80^+ for macrophages. Single-cell suspensions from tumor and spleen tissue were stained with Live/Dead Zombie NIR (Biolegend, (San Diego, CA)) at 1:1,000 in PBS for 20 min. Cell suspensions were spun down and stained with the following with antibodies at 0.5 μg/ml per antibody: APC anti-mouse CD3, Pacific Blue anti-mouse CD4, BV785 anti-mouse CD8, PerCP anti-mouse CD25, FITC anti-mouse F4/80, PeCy7 anti-mouse CD11c, PE anti-mouse NK1.1 or PE anti-mouse DX5, and PerCP-Cy5.5 anti-mouse CD11b. After staining, the cells were washed and fixed (2% formaldehyde), followed by another wash and flow cytometric analysis. The compensation controls were prepared using 0.5 μg/mL of each antibody with UltraComp eBeads, (ThermoFisher Scientific (Waltham, MA)). All samples were subject to flow cytometric profiling using a LSR Flow Cytometer (BD Biosciences (San Jose, CA)) and analysis as indicated using FlowJo software (BD Biosciences (San Jose, CA)).
(§1) For all mouse models, 1×10^6 melanoma cells were injected subcutaneously in the right hind flanks of each mouse. […] This dosage is within ranges for dietary supplementation with L-fucose and other similar dietary sugars (e.g., D-mannose) in other rodent studies. When the tumors reached −2 cm^3, the animals were sacrificed, and the tumors either processed for flow cytometric profiling or for histological analysis as indicated.
(§2) Control vs. L-fucose±FTY720 models (FIG. 2): SW1 or SM1 mouse melanoma cells were injected into syngeneic C3H/HeN (or NSG) female or C57BL/6 male mice, respectively. Cells were injected as follows: parental SW1 cells for FIG. 1A; parental SM1 cells for FIG. 1E; SW1 cells stably expressing either empty vector (EV) or mouse fucose kinase (mFuk) for FIG. 1L; and parental SW1 cells for FIG. 1M. FTY720 was administered at 20 μg every 2 days starting on Day 12, just prior to the initiation of LF, until endpoint.

SW1 tumors [5] = assay: Volumetric tumor growth, SW1 melanoma in C3H/HeN mice (incl. immunodepletion, FTY720, anti-PD1); assay type: in vivo, mouse; details: SW1 melanoma C3H mouse model treated with FTY720 (inhibition of lymph node egress)
From the text: All animals were housed at the Vincent A. Stabile Research building animal facility at H. Lee Moffitt Cancer Center & Research Institute, which is fully accredited by the Association for Assessment and Accreditation of Laboratory Animal Care International (AAALAC, #434), and are managed in accordance with the Guide for the Care and Use of Laboratory Animals (“The Guide”), the Animal Welfare Regulations Title 9 Code of Federal Regulations Subchapter A, “Animal Welfare”, Parts 1-3 (AWR), the Public Health Service Policy on Humane Care and Use of Laboratory Animals (PHS Policy), and by the USF Institutional Animal Care and Use Committee's Principles and Procedures of Animal Care and Use (IACUC Principles). The experiments and protocols detailed in this study received institutional approval by the Moffitt IACUC (RIS00001625). Four-to-six-week-old female C3H/HeN and male C57BL6 mice were purchased from Charles Rivers Laboratories for the indicated experiments. Four-to-six-week-old male NSG mice from the Lau laboratory breeding colony were used for the indicated experiments. Power calculations were used to determine mouse cohort sizes to detect significant changes in tumor sizes. In general, 10 mice per indicated cohort to accommodate for incidental loss of mice due to issues beyond our control (e.g., incidental tumor ulceration that required exclusion from the study). Mouse tumor volumes were measured using length, width and depth divided by 2. At each experimental endpoint, mice were humanely euthanized using CO2 inhalation in accordance to the American Veterinary Medical Association guidelines.
as §1
Control vs. mFuk±L-fucose models (FIG. 1 & FIG. 8): SW1 or SM1 mouse melanoma cells were injected into syngeneic C3H/HeN (or NSG) female or C57BL/6 male mice, respectively, as follows: parental SW1 cells for FIG. 1A; parental SM1 cells for FIG. 1E; SW1 cells stably expressing either empty vector (EV) or mouse fucose kinase (mFuk) for FIG. 1L; and parental SW1 cells for FIG. 1M.
as §2
Immunodepletion mouse models (FIG. 1 & FIG. 8): Three days prior to tumor engraftment, PBS (control) or ˜300 μg α-CD4 (20 mg/kg, for immunodepletion, GK1.5, Bioxcell (West Lebanon, NH)) or 0-CD8 (20 mg/kg, for immunodepletion, 2.43, Bioxcell (West Lebanon, NH)) was administered by intraperitoneal injection into the indicated cohorts of mice. Injections of immunodepletion antibody or PBS were continued every 3-4 days until endpoint. Syngeneic recipient C3H/HeN female or C57BL/6 male mice were injected with SW1 or SM1 cells, respectively. […]

Compound	subcellular localization of HLA-DRB1 (HLA-DRB1 [1])	cell surface HLA-DRB1 (HLA-DRB1 [2])	cell surface fucosylation (HLA-DRB1 [2])	cytoplasmic/membranous localization of endogenous fucosylated HLA-DRB1 (L-PLA) (fucosylated HLA-DRB1)	HLA-DRB1 mRNA and protein levels (HLA-DRB1 [3])	average # of CD4 stem central memory cells (SW1 tumors [4]; Day 28, tumors) [per 10^6 cells]	average # of CD8 stem central memory cells (SW1 tumors [4]; Day 28, tumors) [per 10^6 cells]	average # of CD8 effector memory cells (SW1 tumors [4]; Day 42, tumors) [per 10^6 cells]	average # of CD8 stem central memory cells (SW1 tumors [4]; Day 42, tumors) [per 10^6 cells]	intratumoral CD4+T central and effector memory subpopulations (SW1 tumors [4]; SW1 model ± FTY720)	L-fuc-triggered tumor suppression (SW1 tumors [5])
CC(=O)OC1O[C@@H](C)[C@@H](OC(C)=O)[C@@H](OC(C)=O)[C@@H]1F (some centres unmarked) [FUTi, 2F-peracteyl-fucose, reference compound]	dimmer, more central, endoplasmic reticulum-co-localization of HLA-DRB1	decreased	decreased	lost	remained unchanged						
CCCCCCCCc1ccc(CCC(N)(CO)CO)cc1 [FTY720, reference compound]						0.87	0.00	220.02	0.00	abrogated	completely abrogated
